# Legend:
# Human δ-opioid (DOP) = target: T1, Human δ-opioid (DOP) (Homo sapiens, UniProt P41143); assay: Radioligand binding, human δ-opioid (DOP) membranes, FlashPlate, [3H]-Bremazocine; settings: compound at 10 μM, [3H]-Bremazocine
# T1 construct: purchased Perkin Elmer Biosignal
# Procedure, shortened: (§1)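 Cloned human receptor membranes were coated onto FlashPlate wells and incubated with radioligand and compound (added from a 0.5 mM DMSO daughter plate) for 1 hour at room temperature in the dark. Scintillation counting gave percent inhibition, with DMSO defining total and reference ligand defining non-specific binding.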
# Human opioid (ORL1) = target: T2, Human opioid (ORL1) (Homo sapiens, UniProt P41146); assay: Radioligand binding, human opioid ORL1 membranes, FlashPlate, [125I]-Nociceptin; settings: compound at 10 μM, [125I]-Nociceptin
# T2 construct: purchased Perkin Elmer Biosignal
# T2 sequence (P41146 whole entry): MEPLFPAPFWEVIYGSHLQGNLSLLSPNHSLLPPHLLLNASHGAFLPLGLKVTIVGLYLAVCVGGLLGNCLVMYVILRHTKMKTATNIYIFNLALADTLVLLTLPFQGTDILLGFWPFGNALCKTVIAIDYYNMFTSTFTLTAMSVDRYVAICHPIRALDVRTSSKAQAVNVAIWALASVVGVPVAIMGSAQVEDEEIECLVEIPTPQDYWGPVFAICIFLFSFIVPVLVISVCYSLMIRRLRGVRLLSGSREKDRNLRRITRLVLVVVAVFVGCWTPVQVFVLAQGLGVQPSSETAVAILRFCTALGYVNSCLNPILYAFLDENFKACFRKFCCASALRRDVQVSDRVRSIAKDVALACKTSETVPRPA
# Procedure, shortened: as §1
# Human neurokinin (NK1) = target: T3, Human neurokinin (NK1) (Homo sapiens, UniProt P25103); assay: Radioligand binding, human neurokinin NK1 membranes, filtration, [125I]-Substance P; settings: compound at 10 μM, [125I]-Substance P
# T3 construct: purchased Perkin Elmer Biosignal
# T3 sequence (P25103 whole entry): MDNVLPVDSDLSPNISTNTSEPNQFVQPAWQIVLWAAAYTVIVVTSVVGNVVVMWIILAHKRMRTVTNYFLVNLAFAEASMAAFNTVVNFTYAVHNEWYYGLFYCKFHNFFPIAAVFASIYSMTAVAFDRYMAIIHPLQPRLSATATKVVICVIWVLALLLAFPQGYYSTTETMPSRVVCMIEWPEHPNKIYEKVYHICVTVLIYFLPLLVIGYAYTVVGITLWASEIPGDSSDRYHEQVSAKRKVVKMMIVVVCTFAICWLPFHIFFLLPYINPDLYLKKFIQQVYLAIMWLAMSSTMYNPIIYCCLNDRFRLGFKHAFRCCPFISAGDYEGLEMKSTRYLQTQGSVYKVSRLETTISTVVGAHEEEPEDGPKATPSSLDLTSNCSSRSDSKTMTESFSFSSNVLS
# Procedure, shortened: (§2)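 Filtration binding on cloned human receptor membranes (1 Unit/well), [125I]-Substance P for NK1 and [3H]-Diprenorphine for KOP, 1 h at room temperature. Filters PEI-presoaked, washed with cold 50 mM Tris-HCl pH 7.4, counted by scintillation; percent inhibition calculated, reference ligand defining non-specific binding.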
# Human κ-Opioid (KOP) = target: T4, Human κ-Opioid (KOP) (Homo sapiens, UniProt P41145); assay: Radioligand binding, human κ-opioid (KOP) membranes, filtration, [3H]-Diprenorphine; settings: compound at 10 μM, [3H]-Diprenorphine
# T4 construct: purchased Perkin Elmer Biosignal
# T4 sequence (P41145 whole entry): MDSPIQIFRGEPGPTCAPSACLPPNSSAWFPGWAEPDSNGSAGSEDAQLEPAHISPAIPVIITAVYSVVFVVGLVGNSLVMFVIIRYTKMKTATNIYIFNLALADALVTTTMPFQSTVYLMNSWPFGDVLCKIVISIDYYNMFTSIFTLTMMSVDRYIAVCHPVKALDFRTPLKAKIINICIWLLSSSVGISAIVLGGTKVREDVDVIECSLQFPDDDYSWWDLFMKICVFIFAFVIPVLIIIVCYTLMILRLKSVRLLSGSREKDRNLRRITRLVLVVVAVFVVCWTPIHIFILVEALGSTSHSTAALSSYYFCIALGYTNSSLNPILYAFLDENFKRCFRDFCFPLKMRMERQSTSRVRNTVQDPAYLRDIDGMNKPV
# Procedure, shortened: as §2
# [1] = target: T5, Human neuropeptide Y (NPY-Y1) (Homo sapiens, UniProt P25929); assay: Radioligand binding, human neuropeptide Y NPY-Y1 membranes, FlashPlate, [125I]-PYY; settings: compound at 10 μM, [125I]-PYY
# T5 construct: purchased Perkin Elmer Biosignal
# T5 sequence (P25929 1-384): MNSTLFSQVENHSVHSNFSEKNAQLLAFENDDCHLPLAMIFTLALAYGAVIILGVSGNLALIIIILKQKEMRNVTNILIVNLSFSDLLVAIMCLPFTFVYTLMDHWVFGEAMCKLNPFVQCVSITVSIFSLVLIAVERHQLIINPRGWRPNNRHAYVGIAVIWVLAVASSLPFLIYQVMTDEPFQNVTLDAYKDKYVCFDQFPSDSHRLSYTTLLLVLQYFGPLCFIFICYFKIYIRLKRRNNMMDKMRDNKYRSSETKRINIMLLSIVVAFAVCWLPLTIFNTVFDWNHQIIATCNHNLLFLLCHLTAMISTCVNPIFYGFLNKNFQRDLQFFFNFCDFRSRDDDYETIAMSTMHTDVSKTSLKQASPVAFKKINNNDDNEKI
# Procedure, shortened: as §1
# Human melanocortin (MC5) = target: T6, Human melanocortin (MC5) (Homo sapiens, UniProt P33032); assay: Radioligand binding, human melanocortin MC5 membranes, FlashPlate, [125I]-NDP-αMSH; settings: compound at 10 μM, [125I]-NDP-αMSH
# T6 construct: purchased Perkin Elmer Biosignal
# T6 sequence (P33032 whole entry): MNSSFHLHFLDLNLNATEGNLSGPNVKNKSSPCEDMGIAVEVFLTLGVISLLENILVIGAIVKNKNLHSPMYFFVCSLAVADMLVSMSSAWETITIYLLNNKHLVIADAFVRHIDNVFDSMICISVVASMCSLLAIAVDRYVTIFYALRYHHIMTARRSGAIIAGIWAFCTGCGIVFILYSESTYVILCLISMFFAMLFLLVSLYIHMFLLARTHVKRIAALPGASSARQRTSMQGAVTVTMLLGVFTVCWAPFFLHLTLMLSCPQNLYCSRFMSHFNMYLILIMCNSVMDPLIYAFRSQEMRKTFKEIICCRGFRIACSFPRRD
# Procedure, shortened: as §1
# [2] = target: T7, Human melanin-concentrating hormone (MCH1) (Homo sapiens, UniProt Q99705); assay: Radioligand binding, human melanin-concentrating hormone MCH1 membranes, FlashPlate, [125I]-S36057; settings: compound at 10 μM; for A6 radioligand binding, percentage inhibition / A6: inhibition of radioligand binding, human melanin-concentrating hormone (MCH1): [125I]-S36057
# T7 construct: purchased Perkin Elmer Biosignal
# T7 sequence (Q99705 whole entry): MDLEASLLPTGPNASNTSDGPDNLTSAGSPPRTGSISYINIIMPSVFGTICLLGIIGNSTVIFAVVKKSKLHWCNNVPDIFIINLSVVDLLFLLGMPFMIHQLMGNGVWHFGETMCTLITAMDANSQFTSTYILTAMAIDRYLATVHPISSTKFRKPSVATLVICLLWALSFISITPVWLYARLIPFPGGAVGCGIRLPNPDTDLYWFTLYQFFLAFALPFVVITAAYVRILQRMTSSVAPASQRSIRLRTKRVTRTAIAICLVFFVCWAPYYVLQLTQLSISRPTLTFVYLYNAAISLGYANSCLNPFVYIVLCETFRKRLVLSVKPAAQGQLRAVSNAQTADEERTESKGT
# Procedure, shortened: as §1
# Human Melanocortin (MC3) = target: T8, Human Melanocortin (MC3) (Homo sapiens, UniProt P41968); assay: Radioligand binding, human melanocortin MC3 membranes, FlashPlate, [125I]-NDP-αMSH; settings: compound at 10 μM, [125I]-NDP-αMSH
# T8 construct: purchased Perkin Elmer Biosignal
# T8 sequence (P41968 whole entry): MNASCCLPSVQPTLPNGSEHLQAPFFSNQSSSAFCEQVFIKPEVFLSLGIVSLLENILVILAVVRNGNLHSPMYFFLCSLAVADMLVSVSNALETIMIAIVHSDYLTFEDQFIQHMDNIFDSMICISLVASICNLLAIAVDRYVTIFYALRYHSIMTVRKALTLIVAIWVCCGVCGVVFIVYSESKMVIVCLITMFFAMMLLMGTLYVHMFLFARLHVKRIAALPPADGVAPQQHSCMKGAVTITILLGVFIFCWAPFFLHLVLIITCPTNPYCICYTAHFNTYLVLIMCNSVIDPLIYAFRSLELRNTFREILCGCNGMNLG
# Procedure, shortened: as §1
# Mouse urotensin (mUR2) = target: T9, Mouse urotensin (mUR2) (Mus musculus, UniProt Q8VIH9); assay: Radioligand binding, mouse urotensin mUR2 membranes, FlashPlate, [125I]-Urotensin II; settings: compound at 10 μM, [125I]-Urotensin II
# T9 construct: purchased Perkin Elmer Biosignal
# T9 sequence (Q8VIH9 1-385): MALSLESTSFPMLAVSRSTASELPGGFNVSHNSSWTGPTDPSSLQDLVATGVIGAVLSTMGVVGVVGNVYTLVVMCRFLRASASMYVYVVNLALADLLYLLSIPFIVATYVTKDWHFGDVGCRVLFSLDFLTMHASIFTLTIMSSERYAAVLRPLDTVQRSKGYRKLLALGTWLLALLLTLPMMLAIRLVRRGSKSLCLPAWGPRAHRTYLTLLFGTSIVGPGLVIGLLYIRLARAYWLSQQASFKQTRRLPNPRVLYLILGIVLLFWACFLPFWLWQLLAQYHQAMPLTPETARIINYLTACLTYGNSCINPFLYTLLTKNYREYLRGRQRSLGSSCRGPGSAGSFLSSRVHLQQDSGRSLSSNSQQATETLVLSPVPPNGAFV
# Procedure, shortened: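 Cloned mouse urotensin (mUR2) receptor membranes from Perkin Elmer Biosignal were immobilized in FlashPlate microplates using a proprietary coating. Each well got 19.5 μl buffer, then 0.5 μl of DMSO, reference ligand, or compound. Adding 5 μl of [125I]-Urotensin II, diluted to 5× final concentration in binding buffer, started binding. Plates were sealed with TopSeal-A and incubated 1 hour at room temperature in the dark. Wells were counted for 30 seconds each on a TopCount after a 60-second delay, and percentage inhibition was calculated.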
# Human μ-opioid (MOP) = target: T10, Human μ-opioid (MOP) (Homo sapiens, UniProt P35372); assay: Radioligand binding, human μ-opioid (MOP) membranes, FlashPlate, [3H]-Naloxone; settings: compound at 10 μM, [3H]-Naloxone
# T10 construct: purchased Perkin Elmer Biosignal
# T10 sequence (P35372 whole entry): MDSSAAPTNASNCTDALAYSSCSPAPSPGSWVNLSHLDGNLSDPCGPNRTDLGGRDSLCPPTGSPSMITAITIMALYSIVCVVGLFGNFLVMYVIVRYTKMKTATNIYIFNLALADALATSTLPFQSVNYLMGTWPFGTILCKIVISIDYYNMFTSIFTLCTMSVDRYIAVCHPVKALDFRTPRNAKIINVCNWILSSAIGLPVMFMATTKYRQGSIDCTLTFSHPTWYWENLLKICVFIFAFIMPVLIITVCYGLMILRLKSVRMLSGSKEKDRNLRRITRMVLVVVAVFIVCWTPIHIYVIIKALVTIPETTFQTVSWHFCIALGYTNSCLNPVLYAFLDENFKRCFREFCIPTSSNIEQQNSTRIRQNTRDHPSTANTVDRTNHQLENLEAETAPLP
# Procedure, shortened: as §1
# Human Melanocortin (MC4) = target: T11, Human Melanocortin (MC4) (Homo sapiens, UniProt P32245); assay: Radioligand binding, human melanocortin MC4 membranes, FlashPlate, [125I]-NDP-αMSH; settings: compound at 10 μM, [125I]-NDP-αMSH
# T11 construct: purchased Perkin Elmer Biosignal
# T11 sequence (P32245 whole entry): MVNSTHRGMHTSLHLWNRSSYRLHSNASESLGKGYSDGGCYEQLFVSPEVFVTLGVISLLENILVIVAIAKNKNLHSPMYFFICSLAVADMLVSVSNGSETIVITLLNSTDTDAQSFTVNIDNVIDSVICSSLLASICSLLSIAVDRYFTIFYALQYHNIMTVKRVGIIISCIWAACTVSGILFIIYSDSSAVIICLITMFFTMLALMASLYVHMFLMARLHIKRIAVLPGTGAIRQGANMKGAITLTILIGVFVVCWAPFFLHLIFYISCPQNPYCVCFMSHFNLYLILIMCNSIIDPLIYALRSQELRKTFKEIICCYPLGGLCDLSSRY
# Procedure, shortened: as §1
# T1 sequence (P41143 whole entry): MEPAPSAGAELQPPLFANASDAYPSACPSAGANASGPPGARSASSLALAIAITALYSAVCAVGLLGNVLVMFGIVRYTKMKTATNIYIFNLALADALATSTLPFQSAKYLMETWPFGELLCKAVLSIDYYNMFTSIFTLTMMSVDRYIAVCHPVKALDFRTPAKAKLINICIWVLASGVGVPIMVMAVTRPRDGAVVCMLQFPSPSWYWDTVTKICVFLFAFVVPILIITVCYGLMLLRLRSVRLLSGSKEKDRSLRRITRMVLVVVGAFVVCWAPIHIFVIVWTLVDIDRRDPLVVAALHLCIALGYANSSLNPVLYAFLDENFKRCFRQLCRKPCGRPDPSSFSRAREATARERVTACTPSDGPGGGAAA
smiles,measurement,setting,value
CO[C@H]1[C@H](O)[C@@H](COCc2ccc3ccccc3c2)OC(OCc2cccc(O)c2)[C@@H]1NC(=O)CCNC(=N)N (stereo partly shown) [compound 166],"A1 radioligand binding, percentage inhibition",Human δ-opioid (DOP),− (“−” indicates less than 50% inhibition at 10 μM)
same,"A10 radioligand binding, percentage inhibition",Human opioid (ORL1),− (“−” indicates less than 50% inhibition at 10 μM)
same,"A8 radioligand binding, percentage inhibition",Human neurokinin (NK1),+ (“+” indicates greater than 50% inhibition at 10 μM)
same,"A2 radioligand binding, percentage inhibition",Human κ-Opioid (KOP),− (“−” indicates less than 50% inhibition at 10 μM)
same,"A9 radioligand binding, percentage inhibition",[1],− (“−” indicates less than 50% inhibition at 10 μM)
same,"A5 radioligand binding, percentage inhibition",Human melanocortin (MC5),+ (“+” indicates greater than 50% inhibition at 10 μM)
same,"A6 radioligand binding, percentage inhibition",[2],− (“−” indicates less than 50% inhibition at 10 μM)
same,"A3 radioligand binding, percentage inhibition",Human Melanocortin (MC3),− (“−” indicates less than 50% inhibition at 10 μM)
same,"A11 radioligand binding, percentage inhibition",Mouse urotensin (mUR2),− (“−” indicates less than 50% inhibition at 10 μM)
same,"A7 radioligand binding, percentage inhibition",Human μ-opioid (MOP),− (“−” indicates less than 50% inhibition at 10 μM)
same,"A4 radioligand binding, percentage inhibition",Human Melanocortin (MC4),+ (“+” indicates greater than 50% inhibition at 10 μM)
COCC1OC(OCCc2ccccc2)C(NC(=O)CCN)C(OCc2ccc(Cl)cc2)C1O (stereo not shown) [compound 221],A1: inhibition of radioligand binding,Human δ-opioid (DOP); FlashPlate,− (“−” indicates less than 50% inhibition at 10 μM)
same,A10: inhibition of radioligand binding,Human opioid (ORL1); FlashPlate,− (“−” indicates less than 50% inhibition at 10 μM)
same,A8: inhibition of radioligand binding,Human neurokinin (NK1); filtration,+ (“+” indicates greater than 50% inhibition at 10 μM)
same,A2: inhibition of radioligand binding,Human κ-Opioid (KOP); filtration,− (“−” indicates less than 50% inhibition at 10 μM)
same,A9: inhibition of radioligand binding,[1]; FlashPlate,− (“−” indicates less than 50% inhibition at 10 μM)
same,A5: inhibition of radioligand binding,Human melanocortin (MC5); FlashPlate,+ (“+” indicates greater than 50% inhibition at 10 μM)
same,A6: inhibition of radioligand binding,"[2]; [125I]-S36057, FlashPlate",− (“−” indicates less than 50% inhibition at 10 μM)
same,A3: inhibition of radioligand binding,Human Melanocortin (MC3); FlashPlate,− (“−” indicates less than 50% inhibition at 10 μM)
same,A11: inhibition of radioligand binding,Mouse urotensin (mUR2); FlashPlate,− (“−” indicates less than 50% inhibition at 10 μM)
same,A7: inhibition of radioligand binding,Human μ-opioid (MOP); FlashPlate,− (“−” indicates less than 50% inhibition at 10 μM)
same,A4: inhibition of radioligand binding,Human Melanocortin (MC4); FlashPlate,− (“−” indicates less than 50% inhibition at 10 μM)
CO[C@H]1[C@H](O)[C@@H](COCc2ccc(-c3ccccc3)cc2)OC(OCCc2ccccc2)[C@@H]1NC(=O)CCCN (stereo partly shown) [compound 111],"A1 radioligand binding, percentage inhibition",Human δ-opioid (DOP),− (“−” indicates less than 50% inhibition at 10 μM)
same,"A10 radioligand binding, percentage inhibition",Human opioid (ORL1),− (“−” indicates less than 50% inhibition at 10 μM)
same,"A8 radioligand binding, percentage inhibition",Human neurokinin (NK1),+ (“+” indicates greater than 50% inhibition at 10 μM)
same,"A2 radioligand binding, percentage inhibition",Human κ-Opioid (KOP),− (“−” indicates less than 50% inhibition at 10 μM)
same,"A9 radioligand binding, percentage inhibition",[1],− (“−” indicates less than 50% inhibition at 10 μM)
same,"A5 radioligand binding, percentage inhibition",Human melanocortin (MC5),− (“−” indicates less than 50% inhibition at 10 μM)
same,"A6 radioligand binding, percentage inhibition",[2],− (“−” indicates less than 50% inhibition at 10 μM)
same,"A3 radioligand binding, percentage inhibition",Human Melanocortin (MC3),− (“−” indicates less than 50% inhibition at 10 μM)
same,"A11 radioligand binding, percentage inhibition",Mouse urotensin (mUR2),− (“−” indicates less than 50% inhibition at 10 μM)
same,"A7 radioligand binding, percentage inhibition",Human μ-opioid (MOP),− (“−” indicates less than 50% inhibition at 10 μM)
same,"A4 radioligand binding, percentage inhibition",Human Melanocortin (MC4),− (“−” indicates less than 50% inhibition at 10 μM)
CSC1O[C@H](COCc2ccccc2)[C@@H](O)[C@@H](OCc2ccc(-c3ccccc3)cc2)[C@H]1NC(=O)CCN (stereo partly shown) [compound 285],"A1: inhibition of radioligand binding, human δ-opioid (DOP)",Human δ-opioid (DOP),− (“−” indicates less than 50% inhibition at 10 μM)
same,"A10: inhibition of radioligand binding, human opioid (ORL1)",Human opioid (ORL1),− (“−” indicates less than 50% inhibition at 10 μM)
same,"A8: inhibition of radioligand binding, human neurokinin (NK1)",Human neurokinin (NK1),+ (“+” indicates greater than 50% inhibition at 10 μM)
same,"A2: inhibition of radioligand binding, human κ-opioid (KOP)",Human κ-Opioid (KOP),− (“−” indicates less than 50% inhibition at 10 μM)
same,"A9: inhibition of radioligand binding, human neuropeptide Y (NPY-Y1)",[1],− (“−” indicates less than 50% inhibition at 10 μM)
same,"A5: inhibition of radioligand binding, human melanocortin (MC5)",Human melanocortin (MC5),− (“−” indicates less than 50% inhibition at 10 μM)
same,"A6: inhibition of radioligand binding, human melanin-concentrating hormone (MCH1)",[2],− (“−” indicates less than 50% inhibition at 10 μM)
same,"A3: inhibition of radioligand binding, human melanocortin (MC3)",Human Melanocortin (MC3),− (“−” indicates less than 50% inhibition at 10 μM)
same,"A11: inhibition of radioligand binding, mouse urotensin (mUR2)",Mouse urotensin (mUR2),− (“−” indicates less than 50% inhibition at 10 μM)
same,"A7: inhibition of radioligand binding, human μ-opioid (MOP)",Human μ-opioid (MOP),− (“−” indicates less than 50% inhibition at 10 μM)
same,"A4: inhibition of radioligand binding, human melanocortin (MC4)",Human Melanocortin (MC4),− (“−” indicates less than 50% inhibition at 10 μM)
N=C(N)NCCC(=O)N[C@H]1C(OCc2ccc(Cl)cc2)O[C@H](COCc2ccc3ccccc3c2)[C@@H](O)[C@@H]1OCc1ccc(Cl)cc1 (stereo partly shown) [compound 522],"A1: inhibition of radioligand binding, human δ-opioid (DOP)",Human δ-opioid (DOP),− (“−” indicates less than 50% inhibition at 10 μM)
same,"A10: inhibition of radioligand binding, human opioid (ORL1)",Human opioid (ORL1),+ (“+” indicates greater than 50% inhibition at 10 μM)
same,"A8: inhibition of radioligand binding, human neurokinin (NK1)",Human neurokinin (NK1),+ (“+” indicates greater than 50% inhibition at 10 μM)
same,"A2: inhibition of radioligand binding, human κ-opioid (KOP)",Human κ-Opioid (KOP),+ (“+” indicates greater than 50% inhibition at 10 μM)
same,"A9: inhibition of radioligand binding, human neuropeptide Y (NPY-Y1)",[1]; 10 µM,+ (“+” indicates greater than 50% inhibition at 10 μM)
same,"A5: inhibition of radioligand binding, human melanocortin (MC5)",Human melanocortin (MC5),+ (“+” indicates greater than 50% inhibition at 10 μM)
same,"A6: inhibition of radioligand binding, human melanin-concentrating hormone (MCH1)",[2],+ (“+” indicates greater than 50% inhibition at 10 μM)
same,"A3: inhibition of radioligand binding, human melanocortin (MC3)",Human Melanocortin (MC3),+ (“+” indicates greater than 50% inhibition at 10 μM)
same,"A11: inhibition of radioligand binding, mouse urotensin (mUR2)",Mouse urotensin (mUR2),− (“−” indicates less than 50% inhibition at 10 μM)
same,"A7: inhibition of radioligand binding, human μ-opioid (MOP)",Human μ-opioid (MOP); 10 µM,− (“−” indicates less than 50% inhibition at 10 μM)
same,"A4: inhibition of radioligand binding, human melanocortin (MC4)",Human Melanocortin (MC4),+ (“+” indicates greater than 50% inhibition at 10 μM)
